# Positions of bridges follow the written chain, without caps; N, C: chain ends. Non-standard residues stand in square brackets, D forms with d. Residues, ends and D or L forms follow the SMILES beside them. Cit = NC(=O)NCCC[C@H](N)C(=O)O
# Experiments:
# [1] = biological target: hNav1.7 (Homo sapiens, UniProt Q15858); assay: cell-based; conditions: Nav1.7 Use IC50
# [2] = biological target: hNav1.5 (Homo sapiens, UniProt Q14524); assay: cell-based
# Chain of hNav1.5 (Q14524 whole entry, looked up): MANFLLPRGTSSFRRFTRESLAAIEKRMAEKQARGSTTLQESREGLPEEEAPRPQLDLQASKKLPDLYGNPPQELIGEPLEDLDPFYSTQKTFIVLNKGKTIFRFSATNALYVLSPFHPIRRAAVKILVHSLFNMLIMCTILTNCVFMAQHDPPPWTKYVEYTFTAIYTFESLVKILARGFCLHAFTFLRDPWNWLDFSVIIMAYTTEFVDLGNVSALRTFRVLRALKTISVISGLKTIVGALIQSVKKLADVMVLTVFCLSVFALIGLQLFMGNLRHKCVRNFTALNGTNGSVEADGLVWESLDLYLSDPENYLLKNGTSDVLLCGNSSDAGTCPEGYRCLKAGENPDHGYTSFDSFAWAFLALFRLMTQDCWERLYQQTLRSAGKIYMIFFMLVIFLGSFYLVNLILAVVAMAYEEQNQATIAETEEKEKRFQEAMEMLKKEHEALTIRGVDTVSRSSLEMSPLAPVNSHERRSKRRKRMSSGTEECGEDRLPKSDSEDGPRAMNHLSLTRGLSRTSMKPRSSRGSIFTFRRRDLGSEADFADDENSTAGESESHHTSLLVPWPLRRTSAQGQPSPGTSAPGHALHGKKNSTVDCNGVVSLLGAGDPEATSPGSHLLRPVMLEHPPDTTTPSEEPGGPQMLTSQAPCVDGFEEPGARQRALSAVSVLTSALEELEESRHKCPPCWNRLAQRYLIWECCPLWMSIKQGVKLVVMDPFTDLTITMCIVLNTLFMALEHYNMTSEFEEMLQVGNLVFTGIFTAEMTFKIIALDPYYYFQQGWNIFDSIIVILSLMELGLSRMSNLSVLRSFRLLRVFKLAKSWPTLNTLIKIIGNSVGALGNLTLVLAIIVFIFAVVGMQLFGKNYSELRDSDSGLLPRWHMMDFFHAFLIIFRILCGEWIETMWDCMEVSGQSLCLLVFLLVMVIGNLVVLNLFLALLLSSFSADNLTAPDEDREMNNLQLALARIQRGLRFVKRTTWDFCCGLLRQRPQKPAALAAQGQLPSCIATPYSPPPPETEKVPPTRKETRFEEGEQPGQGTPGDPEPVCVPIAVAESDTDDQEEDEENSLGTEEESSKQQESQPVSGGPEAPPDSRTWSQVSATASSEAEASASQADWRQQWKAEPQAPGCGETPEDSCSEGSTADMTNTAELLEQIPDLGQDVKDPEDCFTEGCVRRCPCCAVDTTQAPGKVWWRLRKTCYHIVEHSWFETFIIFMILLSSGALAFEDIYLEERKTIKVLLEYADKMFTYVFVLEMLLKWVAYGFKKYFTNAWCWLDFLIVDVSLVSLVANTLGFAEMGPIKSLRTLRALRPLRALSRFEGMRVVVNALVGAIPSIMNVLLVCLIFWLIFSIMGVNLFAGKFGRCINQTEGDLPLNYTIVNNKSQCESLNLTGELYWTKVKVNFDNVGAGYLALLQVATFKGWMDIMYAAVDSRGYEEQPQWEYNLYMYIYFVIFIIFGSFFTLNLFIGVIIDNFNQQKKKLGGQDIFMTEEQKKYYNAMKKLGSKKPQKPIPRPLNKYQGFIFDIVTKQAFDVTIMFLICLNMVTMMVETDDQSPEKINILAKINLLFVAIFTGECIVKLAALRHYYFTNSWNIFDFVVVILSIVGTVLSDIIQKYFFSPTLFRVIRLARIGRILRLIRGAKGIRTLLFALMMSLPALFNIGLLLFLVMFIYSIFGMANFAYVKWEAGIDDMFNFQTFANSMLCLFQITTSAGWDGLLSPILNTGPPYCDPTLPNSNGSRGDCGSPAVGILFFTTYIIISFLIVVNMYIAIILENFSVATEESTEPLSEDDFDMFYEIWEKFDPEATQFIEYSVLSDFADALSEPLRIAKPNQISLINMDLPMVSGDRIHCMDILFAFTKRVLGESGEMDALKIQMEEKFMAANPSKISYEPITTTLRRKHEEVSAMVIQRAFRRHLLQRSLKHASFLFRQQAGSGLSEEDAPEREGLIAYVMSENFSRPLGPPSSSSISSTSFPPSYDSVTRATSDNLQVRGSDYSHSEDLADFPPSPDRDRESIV
# Chain of hNav1.7 (Q15858 whole entry, looked up): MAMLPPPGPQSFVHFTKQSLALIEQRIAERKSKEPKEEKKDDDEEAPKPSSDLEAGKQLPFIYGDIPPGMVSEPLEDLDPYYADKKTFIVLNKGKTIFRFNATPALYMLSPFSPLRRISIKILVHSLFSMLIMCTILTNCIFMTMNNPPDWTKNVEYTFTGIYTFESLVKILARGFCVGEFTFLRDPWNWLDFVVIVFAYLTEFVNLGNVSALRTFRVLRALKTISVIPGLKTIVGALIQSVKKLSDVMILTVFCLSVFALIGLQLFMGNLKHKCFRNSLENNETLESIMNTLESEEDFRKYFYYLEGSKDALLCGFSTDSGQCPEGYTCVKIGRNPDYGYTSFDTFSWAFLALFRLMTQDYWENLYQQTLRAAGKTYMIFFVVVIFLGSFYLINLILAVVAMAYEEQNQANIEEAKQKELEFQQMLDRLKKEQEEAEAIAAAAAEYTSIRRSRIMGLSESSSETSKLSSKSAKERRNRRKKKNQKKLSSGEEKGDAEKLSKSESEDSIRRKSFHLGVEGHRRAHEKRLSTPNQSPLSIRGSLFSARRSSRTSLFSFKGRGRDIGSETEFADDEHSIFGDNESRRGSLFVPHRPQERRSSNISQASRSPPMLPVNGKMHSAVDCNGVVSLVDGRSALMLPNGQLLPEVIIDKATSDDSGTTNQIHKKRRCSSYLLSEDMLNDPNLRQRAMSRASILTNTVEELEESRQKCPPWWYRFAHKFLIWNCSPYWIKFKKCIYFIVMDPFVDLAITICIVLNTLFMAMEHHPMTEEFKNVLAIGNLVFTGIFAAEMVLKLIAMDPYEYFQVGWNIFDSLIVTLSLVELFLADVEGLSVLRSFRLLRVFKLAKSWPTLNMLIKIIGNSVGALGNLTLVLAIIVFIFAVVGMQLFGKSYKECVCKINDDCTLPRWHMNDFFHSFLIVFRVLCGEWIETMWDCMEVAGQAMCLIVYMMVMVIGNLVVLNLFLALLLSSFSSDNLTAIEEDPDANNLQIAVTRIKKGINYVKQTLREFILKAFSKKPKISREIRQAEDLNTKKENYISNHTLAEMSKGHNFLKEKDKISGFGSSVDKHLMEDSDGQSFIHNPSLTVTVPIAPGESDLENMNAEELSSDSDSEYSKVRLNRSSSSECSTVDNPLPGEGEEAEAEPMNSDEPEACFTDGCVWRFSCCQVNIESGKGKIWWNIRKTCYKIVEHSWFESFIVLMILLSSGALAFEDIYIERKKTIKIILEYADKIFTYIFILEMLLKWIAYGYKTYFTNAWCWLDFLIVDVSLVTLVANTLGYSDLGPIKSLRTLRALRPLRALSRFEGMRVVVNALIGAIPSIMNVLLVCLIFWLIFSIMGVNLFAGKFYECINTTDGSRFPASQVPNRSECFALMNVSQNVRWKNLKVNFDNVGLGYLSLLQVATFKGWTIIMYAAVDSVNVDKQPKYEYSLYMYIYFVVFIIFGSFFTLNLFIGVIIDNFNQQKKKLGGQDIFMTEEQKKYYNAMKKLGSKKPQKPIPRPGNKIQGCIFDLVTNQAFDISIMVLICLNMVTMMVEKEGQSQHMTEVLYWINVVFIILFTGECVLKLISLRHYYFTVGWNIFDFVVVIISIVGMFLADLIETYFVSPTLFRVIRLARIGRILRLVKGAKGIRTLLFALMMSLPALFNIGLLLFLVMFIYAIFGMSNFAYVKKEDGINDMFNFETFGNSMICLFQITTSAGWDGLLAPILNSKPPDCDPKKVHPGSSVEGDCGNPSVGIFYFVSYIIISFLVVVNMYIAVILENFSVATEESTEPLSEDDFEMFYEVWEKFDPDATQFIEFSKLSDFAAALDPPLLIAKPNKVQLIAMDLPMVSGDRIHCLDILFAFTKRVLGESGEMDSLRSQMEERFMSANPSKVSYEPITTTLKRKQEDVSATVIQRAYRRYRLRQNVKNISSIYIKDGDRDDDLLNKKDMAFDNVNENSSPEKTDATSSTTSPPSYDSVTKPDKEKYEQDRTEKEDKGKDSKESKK
SMILES,IC50 [1] [nM],IC50 [2] [nM]
"CC[C@H](C)[C@@H]1NC(=O)[C@@H]2CSSC[C@@H]3NC(=O)[C@H](Cc4c[nH]c5ccccc45)NC(=O)[C@H](CC(C)C)NC(=O)[C@H](CC(N)=O)NC(=O)[C@@H]4CCCN4C(=O)[C@H](CCCNC(=N)N)NC(=O)[C@H](CSSC[C@H](NC(=O)[C@@H](N)CC(=O)O)C(=O)N[C@@H](CC(C)C)C(=O)NCC(=O)N[C@@H](Cc4ccccc4)C(=O)N[C@@H](CCSC)C(=O)N[C@@H](CCCNC(=N)N)C(=O)N[C@@H](CCCCN)C(=O)N2)NC(=O)[C@H](CSSC[C@@H](C(=O)N[C@@H](CCCCN)C(=O)N[C@@H](Cc2ccc(O)cc2)C(=O)N[C@H](C(=O)N[C@@H](Cc2ccccc2)C(N)=O)C(C)C)NC(=O)[C@H](Cc2c[nH]c4ccccc24)NC(=O)[C@H](CCCCN)NC(=O)[C@H](Cc2cnc[nH]2)NC(=O)[C@H]([C@@H](C)O)NC(=O)[C@H](CCCNC(=N)N)NC(=O)[C@H](CO)NC3=O)NC(=O)[C@H](CCCCN)NC(=O)[C@H](CC(=O)O)NC(=O)[C@H](CC(N)=O)NC(=O)[C@H](CC(=O)O)NC(=O)[C@@H]2CCCN2C1=O [[Trp22]GpTx-1(1-34)] (H-DCLGFMRKCIPDNDKCCRPNLWCSRTHKWCKYVF-NH2; disulfide 2-17, 9-23, 16-30)",39,4780
"CC[C@H](C)[C@@H]1NC(=O)[C@@H]2CSSC[C@@H]3NC(=O)[C@H](C(C)C)NC(=O)[C@H](CC(C)C)NC(=O)[C@H](CC(N)=O)NC(=O)[C@@H]4CCCN4C(=O)[C@H](CCCNC(=N)N)NC(=O)[C@H](CSSC[C@H](NC(=O)[C@@H](N)CC(=O)O)C(=O)N[C@@H](CC(C)C)C(=O)NCC(=O)N[C@@H](Cc4ccccc4)C(=O)N[C@@H](CCSC)C(=O)N[C@@H](CCCNC(=N)N)C(=O)N[C@@H](CCCCN)C(=O)N2)NC(=O)[C@H](CSSC[C@@H](C(=O)N[C@@H](CCCCN)C(=O)N[C@@H](Cc2ccc(O)cc2)C(=O)N[C@@H](Cc2c[nH]c4ccccc24)C(=O)N[C@@H](Cc2ccccc2)C(N)=O)NC(=O)[C@H](Cc2c[nH]c4ccccc24)NC(=O)[C@H](CCCCN)NC(=O)[C@H](Cc2c[nH]cn2)NC(=O)[C@H]([C@@H](C)O)NC(=O)[C@H](CCCNC(=N)N)NC(=O)[C@H](CO)NC3=O)NC(=O)[C@H](CCCCN)NC(=O)[C@H](CC(=O)O)NC(=O)[C@H](CC(N)=O)NC(=O)[C@H](CC(=O)O)NC(=O)[C@@H]2CCCN2C1=O [[Trp33]GpTx-1(1-34)] (H-DCLGFMRKCIPDNDKCCRPNLVCSRTHKWCKYWF-NH2; disulfide 2-17, 9-23, 16-30)",18,2350
"CC[C@H](C)[C@@H]1NC(=O)[C@@H]2CSSC[C@@H]3NC(=O)[C@H](Cc4ccc(O)cc4)NC(=O)[C@H](CC(C)C)NC(=O)[C@H](CC(N)=O)NC(=O)[C@@H]4CCCN4C(=O)[C@H](CCCNC(=N)N)NC(=O)[C@H](CSSC[C@H](NC(=O)[C@@H](N)CC(=O)O)C(=O)N[C@@H](CC(C)C)C(=O)NCC(=O)N[C@@H](Cc4ccccc4)C(=O)N[C@@H](CCSC)C(=O)N[C@@H](CCCNC(=N)N)C(=O)N[C@@H](CCCCN)C(=O)N2)NC(=O)[C@H](CSSC[C@@H](C(=O)N[C@@H](CCCCN)C(=O)N[C@@H](Cc2ccc(O)cc2)C(=O)N[C@H](C(=O)N[C@@H](Cc2ccccc2)C(N)=O)C(C)C)NC(=O)[C@H](Cc2c[nH]c4ccccc24)NC(=O)[C@H](CCCCN)NC(=O)[C@H](Cc2c[nH]cn2)NC(=O)[C@H]([C@@H](C)O)NC(=O)[C@H](CCCNC(=N)N)NC(=O)[C@H](CO)NC3=O)NC(=O)[C@H](CCCCN)NC(=O)[C@H](CC(=O)O)NC(=O)[C@H](CC(N)=O)NC(=O)[C@H](CC(=O)O)NC(=O)[C@@H]2CCCN2C1=O [[Tyr22]GpTx-1(1-34)] (H-DCLGFMRKCIPDNDKCCRPNLYCSRTHKWCKYVF-NH2; disulfide 2-17, 9-23, 16-30)",18,> 10000
"CSCC[C@@H]1NC(=O)[C@H](C(C)C)NC(=O)CNC(=O)[C@H](CC(C)C)NC(=O)[C@@H](NC(=O)[C@@H](N)CC(=O)O)CSSC[C@@H]2NC(=O)[C@@H]3CSSC[C@@H](C(=O)N[C@@H](CCCCN)C(=O)N[C@@H](Cc4ccc(O)cc4)C(=O)N[C@H](C(=O)N[C@@H](Cc4ccccc4)C(N)=O)C(C)C)NC(=O)[C@H](Cc4c[nH]c5ccccc45)NC(=O)[C@H](CCCCN)NC(=O)[C@H](Cc4c[nH]cn4)NC(=O)[C@H]([C@@H](C)O)NC(=O)[C@H](CCCNC(=N)N)NC(=O)[C@H](CO)NC(=O)[C@H](CSSC[C@H](NC(=O)[C@H](CCCCN)NC(=O)[C@H](CCCNC(=N)N)NC1=O)C(=O)N[C@@H](CC(=O)O)C(=O)N1CCC[C@H]1C(=O)N[C@@H](CCC(=O)O)C(=O)N[C@@H](CC(N)=O)C(=O)N[C@@H](CC(=O)O)C(=O)N[C@@H](CCCCN)C(=O)N3)NC(=O)[C@H](C(C)C)NC(=O)[C@H](CC(C)C)NC(=O)[C@H](CC(N)=O)NC(=O)[C@@H]1CCCN1C(=O)[C@H](CCCNC(=N)N)NC2=O [[Val5;Asp10;Glu12]GpTx-1(1-34)] (H-DCLGVMRKCDPENDKCCRPNLVCSRTHKWCKYVF-NH2; disulfide 2-17, 9-23, 16-30)",116,> 10000
"CSCC[C@@H]1NC(=O)[C@H](C(C)C)NC(=O)CNC(=O)[C@H](CC(C)C)NC(=O)[C@@H](NC(=O)[C@@H](N)CC(=O)O)CSSC[C@@H]2NC(=O)[C@@H]3CSSC[C@@H](C(=O)N[C@@H](CCCCN)C(=O)N[C@@H](Cc4ccc(O)cc4)C(=O)N[C@H](C(=O)N[C@@H](Cc4ccccc4)C(N)=O)C(C)C)NC(=O)[C@H](Cc4c[nH]c5ccccc45)NC(=O)[C@H](CCCCN)NC(=O)[C@H](Cc4c[nH]cn4)NC(=O)[C@H]([C@@H](C)O)NC(=O)[C@H](CCCNC(=N)N)NC(=O)[C@H](CO)NC(=O)[C@H](CSSC[C@H](NC(=O)[C@H](CCCCN)NC(=O)[C@H](CCCNC(=N)N)NC1=O)C(=O)N[C@@H](CC(=O)O)C(=O)N1CCC[C@H]1C(=O)N[C@@H](CC(=O)O)C(=O)N[C@@H](CC(N)=O)C(=O)N[C@@H](CC(=O)O)C(=O)N[C@@H](CCCCN)C(=O)N3)NC(=O)[C@H](C(C)C)NC(=O)[C@H](CC(C)C)NC(=O)[C@H](CC(N)=O)NC(=O)[C@@H]1CCCN1C(=O)[C@H](CCCNC(=N)N)NC2=O [[Val5;Asp10]GpTx-1(1-34)] (H-DCLGVMRKCDPDNDKCCRPNLVCSRTHKWCKYVF-NH2; disulfide 2-17, 9-23, 16-30)",174,> 10000
"CC[C@H](C)[C@@H]1NC(=O)[C@@H]2CSSC[C@@H]3NC(=O)[C@H](C(C)C)NC(=O)[C@H](CC(C)C)NC(=O)[C@H](CC(N)=O)NC(=O)[C@@H]4CCCN4C(=O)[C@H](CCCNC(=N)N)NC(=O)[C@H](CSSC[C@H](NC(=O)[C@@H](N)CC(=O)O)C(=O)N[C@@H](CC(C)C)C(=O)NCC(=O)N[C@@H](C(C)C)C(=O)N[C@@H](CCSC)C(=O)N[C@@H](CCCNC(=N)N)C(=O)N[C@@H](CCCCN)C(=O)N2)NC(=O)[C@H](CSSC[C@@H](C(=O)N[C@@H](CCCCN)C(=O)N[C@@H](Cc2ccc(O)cc2)C(=O)N[C@H](C(=O)N[C@@H](Cc2ccccc2)C(N)=O)C(C)C)NC(=O)[C@H](Cc2c[nH]c4ccccc24)NC(=O)[C@H](CCCCN)NC(=O)[C@H](Cc2c[nH]cn2)NC(=O)[C@H]([C@@H](C)O)NC(=O)[C@H](CCCNC(N)=O)NC(=O)[C@H](CO)NC3=O)NC(=O)[C@H](CCCCN)NC(=O)[C@H](CC(=O)O)NC(=O)[C@H](CC(N)=O)NC(=O)[C@H](CC(=O)O)NC(=O)[C@@H]2CCCN2C1=O [[Val5;Cit25]GpTx-1(1-34)] (H-DCLGVMRKCIPDNDKCCRPNLVCS[Cit]THKWCKYVF-NH2; disulfide 2-17, 9-23, 16-30)",28,> 10000
"CC[C@H](C)[C@@H]1NC(=O)[C@@H]2CSSC[C@@H]3NC(=O)[C@H](C(C)C)NC(=O)[C@H](CC(C)C)NC(=O)[C@H](CC(N)=O)NC(=O)[C@@H]4CCCN4C(=O)[C@H](CCCNC(=N)N)NC(=O)[C@H](CSSC[C@H](NC(=O)[C@@H](N)CC(=O)O)C(=O)N[C@@H](CC(C)C)C(=O)NCC(=O)N[C@@H](C(C)C)C(=O)N[C@@H](CCSC)C(=O)N[C@@H](CCCNC(=N)N)C(=O)N[C@@H](CCCCN)C(=O)N2)NC(=O)[C@H](CSSC[C@@H](C(=O)N[C@@H](CCCCN)C(=O)N[C@@H](Cc2ccc(O)cc2)C(=O)N[C@H](C(=O)N[C@@H](Cc2ccccc2)C(N)=O)C(C)C)NC(=O)[C@H](Cc2c[nH]c4ccccc24)NC(=O)[C@H](CCCCN)NC(=O)[C@H](Cc2c[nH]cn2)NC(=O)[C@H]([C@@H](C)O)NC(=O)[C@H](CCCNC(=N)N)NC(=O)[C@H](CO)NC3=O)NC(=O)[C@H](CCCCN)NC(=O)[C@H](CC(=O)O)NC(=O)[C@H](CC(N)=O)NC(=O)[C@H](CCC(=O)O)NC(=O)[C@@H]2CCCN2C1=O [[Val5;Glu12]GpTx-1(1-34)] (H-DCLGVMRKCIPENDKCCRPNLVCSRTHKWCKYVF-NH2; disulfide 2-17, 9-23, 16-30)",74,> 10000
"CC[C@H](C)[C@@H]1NC(=O)[C@@H]2CSSC[C@@H]3NC(=O)[C@H](C(C)C)NC(=O)[C@H](CC(C)C)NC(=O)[C@H](CC(N)=O)NC(=O)[C@@H]4CCCN4C(=O)[C@H](CCCNC(=N)N)NC(=O)[C@H](CSSC[C@H](NC(=O)[C@@H](N)CC(=O)O)C(=O)N[C@@H](CC(C)C)C(=O)NCC(=O)N[C@@H](C(C)C)C(=O)N[C@@H](CCSC)C(=O)N[C@@H](CCCNC(=N)N)C(=O)N[C@@H](CCCCN)C(=O)N2)NC(=O)[C@H](CSSC[C@@H](C(=O)N[C@@H](CCCCN)C(=O)N[C@@H](Cc2ccc(O)cc2)C(=O)N[C@H](C(=O)N[C@@H](Cc2ccccc2)C(N)=O)C(C)C)NC(=O)[C@H](Cc2c[nH]c4ccccc24)NC(=O)[C@H](CCC(=O)O)NC(=O)[C@H](Cc2c[nH]cn2)NC(=O)[C@H]([C@@H](C)O)NC(=O)[C@H](CCCNC(=N)N)NC(=O)[C@H](CO)NC3=O)NC(=O)[C@H](CCCCN)NC(=O)[C@H](CC(=O)O)NC(=O)[C@H](CC(N)=O)NC(=O)[C@H](CC(=O)O)NC(=O)[C@@H]2CCCN2C1=O [[Val5;Glu28]GpTx-1(1-34)] (H-DCLGVMRKCIPDNDKCCRPNLVCSRTHEWCKYVF-NH2; disulfide 2-17, 9-23, 16-30)",29,> 10000
